How the values were obtained:
[1] = target: TIP60-KAT5 (Homo sapiens, UniProt Q92993); test: Acetyltransferase biochemical assay (AlphaScreen), KAT5
[2] = target: HBO-KAT7 (Homo sapiens, UniProt O95251); test: Acetyltransferase biochemical assay (AlphaScreen), KAT7
[3] = target: MOZ-KAT6A (Homo sapiens, UniProt Q92794, A567V); test: Acetyltransferase biochemical assay (AlphaScreen), KAT6A
MOZ-KAT6A, sequence (Q92794 with tags, fused parts or gaps A567V): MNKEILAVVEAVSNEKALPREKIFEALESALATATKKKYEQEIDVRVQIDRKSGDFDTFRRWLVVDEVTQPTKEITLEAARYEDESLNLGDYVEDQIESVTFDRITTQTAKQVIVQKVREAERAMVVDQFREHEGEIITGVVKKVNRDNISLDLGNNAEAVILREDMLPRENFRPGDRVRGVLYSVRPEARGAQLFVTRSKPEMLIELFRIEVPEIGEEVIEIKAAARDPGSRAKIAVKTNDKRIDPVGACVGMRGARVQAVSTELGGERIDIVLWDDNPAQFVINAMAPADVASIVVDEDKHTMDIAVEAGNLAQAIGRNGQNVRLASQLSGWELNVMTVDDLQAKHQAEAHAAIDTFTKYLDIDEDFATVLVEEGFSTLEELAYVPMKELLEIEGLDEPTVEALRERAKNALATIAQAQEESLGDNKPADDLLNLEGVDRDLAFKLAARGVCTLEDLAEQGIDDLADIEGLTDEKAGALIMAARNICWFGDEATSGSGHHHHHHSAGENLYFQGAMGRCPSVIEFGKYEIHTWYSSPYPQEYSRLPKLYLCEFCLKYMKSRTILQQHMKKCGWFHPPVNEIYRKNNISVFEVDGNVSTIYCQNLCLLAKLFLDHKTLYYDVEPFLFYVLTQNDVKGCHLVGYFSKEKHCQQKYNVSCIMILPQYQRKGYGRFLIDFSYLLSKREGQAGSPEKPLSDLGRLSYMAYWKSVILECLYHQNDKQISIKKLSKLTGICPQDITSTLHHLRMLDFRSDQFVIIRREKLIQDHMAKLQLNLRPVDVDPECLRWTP

HBO-KAT7, sequence (O95251 with tags, fused parts or gaps): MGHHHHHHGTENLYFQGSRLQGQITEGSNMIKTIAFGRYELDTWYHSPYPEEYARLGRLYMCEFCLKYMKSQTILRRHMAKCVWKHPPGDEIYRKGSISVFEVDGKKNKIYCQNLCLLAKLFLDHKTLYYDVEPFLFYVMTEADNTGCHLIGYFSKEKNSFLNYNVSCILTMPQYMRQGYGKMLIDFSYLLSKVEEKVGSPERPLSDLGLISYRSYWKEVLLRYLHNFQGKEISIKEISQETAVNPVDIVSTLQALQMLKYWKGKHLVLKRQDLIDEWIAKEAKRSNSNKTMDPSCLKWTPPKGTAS
TIP60-KAT5, sequence (Q92993 with tags, fused parts or gaps isoform Q92993-2): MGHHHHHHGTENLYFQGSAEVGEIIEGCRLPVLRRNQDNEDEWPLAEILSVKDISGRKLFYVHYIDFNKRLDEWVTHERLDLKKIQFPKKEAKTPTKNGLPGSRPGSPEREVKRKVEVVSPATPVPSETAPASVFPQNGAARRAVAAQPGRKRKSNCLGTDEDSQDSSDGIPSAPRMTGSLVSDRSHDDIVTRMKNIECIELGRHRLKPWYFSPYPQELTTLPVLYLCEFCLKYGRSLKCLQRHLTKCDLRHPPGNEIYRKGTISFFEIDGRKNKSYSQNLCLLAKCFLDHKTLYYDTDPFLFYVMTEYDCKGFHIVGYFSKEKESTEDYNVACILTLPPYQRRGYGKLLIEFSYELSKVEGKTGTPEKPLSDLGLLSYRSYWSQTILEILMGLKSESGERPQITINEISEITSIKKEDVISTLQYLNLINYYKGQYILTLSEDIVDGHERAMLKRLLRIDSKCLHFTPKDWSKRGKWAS

SMILES	IC50 [1] [µM]	IC50 [2] [µM]	IC50 [3] [µM]
CCc1ccc(OC)c(S(=O)(=O)Nc2noc3ccccc23)c1 [Example 63, N-(benzo[d]isoxazol-3-yl)-5-ethyl-2-methoxy benzene-sulfonamide]	> 125	60.1	2.56
O=S(=O)(Nc1noc2ccccc12)c1ccc2c(c1)CCC2 [Example 64, N-(benzo[d]isoxazol-3-yl)-2,3-dihydro-1H-indene-5-sulfonamide]	> 125	106	26.7
O=S(=O)(Nc1noc2ccccc12)c1ccc2c(c1)CCCC2 [Example 65, N-(benzo[d]isoxazol-3-yl)-5,6,7,8-tetrahydro-naphthalene-2-sulfonamide]	> 125	59.7	27.9
O=S(=O)(Nc1noc2ccccc12)c1ccc2ccccc2c1 [Example 66, N-(benzo[d]isoxazol-3-yl)naphthalene-2-sulfonamide]	123	114	14.6
Cc1nnc(-c2cccc(S(=O)(=O)Nc3noc4ccccc34)c2)o1 [Example 67, N-(benzo[d]isoxazol-3-yl)-3-(5-methyl-1,3,4-oxadiazol-2-yl)benzene sulfonamide]	115	> 125	22.7
O=S(=O)(Nc1noc2ccccc12)c1ccc(Br)cn1 [Example 68, N-(benzo[d]isoxazol- -3-yl)-5-bromopyridine-2-sulfonamide]	> 125	> 125	85.1
O=S(=O)(Nc1noc2ccccc12)c1ccc(-c2ccccc2)cc1 [Example 69, N-(benzo[d]isoxazol-3-yl)-[1,1-biphenyl]-4-sulfonamide]	124	94.1	42.9
O=S(=O)(Nc1noc2ccccc12)c1cccc(-c2ccccc2)c1 [Example 70, N-(benzo[d]isoxazol-3-yl)-[1,1-biphenyl]-3-sulfonamide]	36.8	32	31.3
O=S(=O)(Nc1noc2ccccc12)c1ccc(C2CCCCC2)cc1 [Example 71, N-(benzo[d]isoxazol-3-yl)-4-cyclohexyl benzene-sulfonamide]	28.4	21.6	11.6
COc1cc(C)cc(C)c1S(=O)(=O)Nc1noc2cccc(OC)c12 [Example 72, 2-methoxy-N-(4-methoxybenzo[d]isoxazol-3-yl)-4,6-dimethylbenzene sulfonamide]	> 125	11.4	46.2
COc1ccc(S(=O)(=O)Nc2noc3cccc(OC)c23)c(OC)c1 [Example 76, 2,4-dimethoxy-N-(4-methoxybenzo [d]isoxazol-3-yl)benzene sulfonamide]	2.58	0.937	0.688
COc1cccc2onc(NS(=O)(=O)c3c(C)ccc4cccnc34)c12 [Example 77, N-(4-methoxybenzo[d]isoxazol-3-yl)-7-methyl quinoline-8-sulfonamide]	51.8	12	10.8
COc1cccc2onc(NS(=O)(=O)c3cc(C)cc4cccnc34)c12 [Example 78, N-(4-methoxybenzo[d]isoxazol-3-yl)-6-methyl quinoline-8-sulfonamide]	> 125	> 125	93.8
COc1cccc2onc(NS(=O)(=O)c3cccc4c(C)ccnc34)c12 [Example 79, N-(4-methoxybenzo[d]isoxazol-3-yl)-4-methyl quinoline-8-sulfonamide]	17.5	4.06	13.9
COc1cccc2onc(NS(=O)(=O)c3cccc4cccnc34)c12 [Example 83, N-(4-methoxybenzo[d]isoxazol-3-yl)quinoline-8-sulfonamide]	17.9	3.79	13.6
COc1cccc2onc(NS(=O)(=O)c3ccc4c(c3)CCCC4)c12 [Example 84, N-(4-methoxybenzo[d]isoxazol-3-yl)-5,6,7,8-tetrahydro-naphthalene-2-sulfonamide]	50.5	20	18.7
COc1cc(OC)c(S(=O)(=O)Nc2noc3cccc(OC)c23)c(OC)c1 [Example 85, 2,4,6-trimethoxy-N-(4-methoxybenzo[d]isoxazol-3-yl)benzene sulfonamide]	28.5	1.77	3.87
COCc1ccccc1S(=O)(=O)Nc1noc2cccc(OC)c12 [Example 88, N-(4-methoxybenzo[d]isoxazol-3-yl)-2-(methoxymethyl)benzene-sulfonamide]	> 125	7.51	41.2
COc1cccc2onc(NS(=O)(=O)c3ccccc3)c12 [Example 90, N-(4-Methoxybenzo[d]isoxazol-3-yl)benzenesulfonamide]	90.7	18.9	4.78
COc1ccc2cccnc2c1S(=O)(=O)Nc1noc2cccc(OC)c12 [Example 98, 7-Methoxy-N-(4-methoxybenzo[d]isoxazol-3-yl)quinoline-8-sulfonamide]	31.3	3.41	5.6
COc1ccc(Oc2ccccc2)cc1S(=O)(=O)Nc1noc2cccc(OC)c12 [Example 99, 2-Methoxy-N-(4-methoxybenzo[d]isoxazol-3-yl)-5-phenoxybenzenesulfonamide]	9.7	5.74	2.1
COc1ccc(C(F)(F)F)c(OC)c1S(=O)(=O)Nc1noc2cccc(OC)c12 [Example 101, 2,6-Dimethoxy-N-(4-methoxybenzo[d]isoxazol-3-yl)-3-(trifluoromethyl)benzenesulfonamide]	98.2	32.8	3.8
COCc1ccc2c(NS(=O)(=O)c3c(OC)cccc3OC)noc2c1 [Example 103, 2,6-Dimethoxy-N-(6-(methoxymethyl)benzo [d]isoxazol-3-yl)benzenesulfonamide]	69.3	5.93	0.81
COc1cccc(OC)c1S(=O)(=O)Nc1noc2ccc(C)cc12 [Example 104, 2,6-Dimethoxy-N-(5-methylbenzo[d]isoxazol-3-yl)benzenesulfonamide]	28.1	3.13	0.786
COc1cccc(OC)c1S(=O)(=O)Nc1noc2cc(-n3nc(C)cc3C)ccc12 [Example 105]	> 125	63.2	2.9
COc1cc2c(c(OC)c1S(=O)(=O)Nc1noc3cccc(OC)c13)CCC2 [Example 106, 4,6-Dimethoxy-N-(4-methoxybenzo[d]isoxazol-3-yl)-2,3-dihydro-1H-indene-5-sulfonamide]	14.3	3.98	0.782
CCc1ccc(OC)c(S(=O)(=O)Nc2noc3ccc(Br)c(OC)c23)c1 [Example 108, N-(5-bromo-4-methoxybenzo[d]isoxazol-3-yl)-5-ethyl-2-methoxy benzenesulfonamide]	41.9	2.04	3.09
CCc1ccc(OC)c(S(=O)(=O)Nc2noc3cccc(COC)c23)c1 [Example 110, 5-Ethyl-2-methoxy-N-(4-(methoxymethyl)benzo [d]isoxazol-3-yl)benzenesulfonamide]	> 125	17.5	7.89
CCOc1cccc2onc(NS(=O)(=O)c3cc(CC)ccc3OC)c12 [Example 112]	16.5	3.01	1.46
